Assay results: patent EP4741395A1, “NOVEL COMPOUND SENSITIVE TO NITROGEN MONOXIDE AND PHARMACEUTICAL COMPOSITION COMPRISING SAME” (Omniamed Co. Ltd, priority 2023, dated 2025)

Tests used:
[1] = in vivo; conditions: male, C57BL/6, mouse, in vivo, po
Method: Specifically, the experimental animals were twelve six-week-old C57BL/6 male mice. The experimental animals were housed in polycarbonate cages in groups of four, and had free access to food and water. The animal housing room was maintained at a temperature of 20±1°C and humidity of about 50±5%, with a constant 12-hour light/dark cycle. The experimental animals were acclimated to the animal room environment for one week, and then randomly divided into three groups of four animals each based on body weight.

[2] = Hematological toxicity evaluation after single oral administration (routine blood test); conditions: mice, two days after administration
[3] = Efficacy on collagen-induced rheumatoid arthritis (arthritis score); assay type: in vivo, DBA/1 male mice
Method: The experimental animals were 30 8-week-old DBA/1 male mice. […] The number of normal mice was set to five in order to minimize the number of experimental animals. The group administered with Compound (1) consisted of 5 to 6 mice, a minimal number required to obtain statistically meaningful data given the limited amount of the drug.
(§1) In order to establish a rheumatoid arthritis model, 100 µL of a mixture solution in which 2 mg/mL of chick type II collagen and 1 mg/mL of Complete Freund's Adjuvant (CFA) were mixed in a ratio of 1:1 was administered intradermally to each of the mouse tails. After 19 days, 100 µL of an emulsion in which 2 mg/mL of chick type II collagen and Incomplete Freund's Adjuvant (IFA) were mixed in a ratio of 1:1 was administered intradermally to each of the mouse tails.
The test substances of Table 23 were administered orally every day according to the drug dosing period and dosing frequency. As for the rheumatoid arthritis score (arthritis score), the score of each of the four paws was quantified according to the criteria shown in the following Table 24, and the individual scores were summed to generate the final score.
The experimental animals were 31 8-week-old DBA/1 male mice. […] The number of normal mice was set to five in order to minimize the number of experimental animals. The group administered with Compound (11) consisted of 5 mice, a minimal number required to obtain statistically meaningful data given the limited amount of the drug. Each of the remaining groups consisted of 7 mice, with two extra mice added to account for experimental error.
as §1
Oral administration was conducted daily according to the dose, dosing frequency and dosing period of Table 25. Based on the criteria shown in Table 24, rheumatoid arthritis score for the four paws were quantified and summed to generate the score.

[4] = mouse, in vivo, po, 800 mg/kg

C[C@@H]1CCN(C(=O)CC#N)C[C@@H]1N(C)c1ncnc2[nH]ccc12 [Tofacitinib, tofacitinib]
MTD at 4 days [1]: 400 mg/kg
WBC Differential Counting (LYM) (% of Normal) ([2]; 200 mg/kg single oral dose): 81.1±31.3 % of Normal
WBC Differential Counting (NEU) (% of Normal) ([2]; 200 mg/kg single oral dose): 68.3±15.7 % of Normal
WBC (% of Normal) ([2]; 800 mg/kg single oral dose): 62.1±4.7 % of Normal
WBC Differential Counting (LYM) (% of Normal) ([2]; 800 mg/kg single oral dose): 61.2±4.6 % of Normal
WBC Differential Counting (NEU) (% of Normal) ([2]; 800 mg/kg single oral dose): 56.4±7.9 % of Normal
rheumatoid arthritis-alleviating efficacy (arthritis score) ([3]; 10 mg/kg oral twice daily (BID), day 39 (p<0.05) and day 40 (p<0.01), FIG. 7): Statistically significant rheumatoid arthritis-alleviating efficacy was observed
rheumatoid arthritis-alleviating efficacy (arthritis score) ([3]; 40 mg/kg oral once daily, from day 33 after disease induction (p<0.01) to the end, FIG. 6): statistically significant rheumatoid arthritis-alleviating efficacy was observed
hematological toxicity [4]: hematological toxicity was observed
